Results: patent US8044080B2, “Isoxazoline derivative and novel process for its preparation” (LG Life Sciences Ltd., priority 2005, dated 2011)

Experiments:
[1] = Stability test of amorphous and crystalline form under severe condition (60° C.); assay type: physicochemical; details: after 28 days
Source text: Therefore, it should be understood that the crystalline form has better stability than the amorphous form enough to be used for the composition of inhibitor or therapeutic agent.

[2] = test system: Fas Antibody-Induced Acute Hepatitis in Mice; assay: Treatment effect on Fas antibody-induced acute hepatitis in mice (blood plasma ALT activity); assay type: in vivo, Male Balb/c mice; details: Mus musculus, Fas antibody model, plasma ALT 8 hours after drug injection
[3] = test system: LPS-Induced Acute Hepatitis in Mice; assay: Treatment effect on LPS-induced acute hepatitis in mice (blood plasma ALT activity); assay type: in vivo, Male Balb/c mice; details: Mus musculus, LPS/D-Gln model, plasma ALT 8 hours after drug injection

CC(C)[C@@]1(C(=O)N[C@H]2CC(=O)O[C@]2(O)CF)CC(c2nccc3ccccc23)=NO1 [(4S,5S)-5-fluoromethyl-5-hydroxy-4-({[(5R)-5-isopropyl-3-(1-isoquinolinyl)-4,5-dihydro-5-isoxazolyl]carbonyl}amino)-2-dihydrofuranone]
amount destroyed in stability test [1]: 50%
quantitative amount in stability test [1]: not decreased at all

CC(C)[C@@]1(C(=O)N[C@H]2CC(=O)O[C@]2(O)CF)CC(c2nccc3ccccc23)=NO1 [compound of formula (1), (4S,5S)-5-fluoromethyl-5-hydroxy-4-({[(5R)-5-isopropyl-3-(1-isoquinolinyl)-4,5-dihydro-5-isoxazolyl]carbonyl}amino)-2-dihydrofuranone]
ED50 ([2]; intravenous administration): 0.003 mg/kg
ED50 ([2]; oral administration): 0.018 mg/kg
ED50 ([3]; intravenous administration): 0.015 mg/kg
ED50 ([3]; oral administration): 0.02 mg/kg
